{
  "source": "paper PMC6921279",
  "about": "(Frontiers in Endocrinology, 2019)",
  "key": {"[1]": {"test_system": "Src", "experiment": "CRF-induced Src phosphorylation at Tyr416 in COS-7 cells expressing HA-CRF1R", "format": "cell-based", "conditions": "100 nM wortmannin, 30 min pretreatment; 100 nM CRF, 5 min", "method": "(§1) COS-7 cells (from the American Type Culture Collection) were cultured at 37°C in a humidified atmosphere of 95% air, 5% CO2, in DMEM supplemented with 10% FBS, 100 μg/ml streptomycin, and 100 units/ml penicillin (COS-7 growth medium). Transient transfections were performed using LipofectAMINE (Life Technologies: Gaithersburg, MD) as described previously ([27]). Cells were seeded at 8 × 10^5 cells/10-cm dish in COS-7 medium and cultured for 3 days before transfection. COS-7 cells were transfected in 5 ml/dish OptiMEM containing 10 μg/ml LipofectAMINE with empty vector, pcDNA3 encoding the HA-CRF1R or the HA-CRF1R-Δ386 mutant. […] After replacing the transfection medium with fresh growth medium, transfected COS-7 cells were cultured for 1 day. […]\n(§2) The protocols for measuring total and phosphorylated ERK1/2, c-Src, PYK2, Akt, and EGFR have been previously published ([28], [29]). […] The labeled bands were quantified using the Quantity One 4.6.3 software program (Bio-Rad).\nFigure 5 Role of Src tyrosine kinase in CRF-stimulated ERK1/2 phosphorylation. […] Total cell lysates were separated by SDS-PAGE and analyzed by immunoblotting with anti-p-Src Tyr^416 (A,B) or anti-p-ERK1/2 Thr^202/Tyr^204 (C–E), as described in Materials and Methods. Src, PYK2, and ERK1/2 phosphorylation were quantitated by densitometry, and mean values were plotted from three to five independent experiments. […]"}, "[2]": {"test_system": "EGF-stimulated ERK1/2 phosphorylation", "experiment": "Modulation of EGF-stimulated ERK1/2 phosphorylation in COS-7 cells", "format": "cell-based", "conditions": "wortmannin 100 nM, 30 min pretreatment; 10 ng/ml EGF, 10 min", "method": "as §1, §2\nFigure 3 Involvement of EGFR transactivation in CRF-stimulated ERK1/2 phosphorylation. […] Total cell lysates were separated by SDS-PAGE and analyzed by immunoblotting with anti-p-ERK1/2 Thr^202/Tyr^204 (A–D) or anti-p-EGFR Tyr^1068 (E), as described in Materials and Methods. ERK1/2 and EGFR phosphorylation were quantitated by densitometry, and mean values were plotted from three to five independent experiments. […]"}},
  "data": [
    {"molecule": "COC[C@H]1OC(=O)c2coc3c2[C@@]1(C)C1=C(C3=O)[C@@H]2CCC(=O)[C@@]2(C)C[C@H]1OC(C)=O", "note": "[wortmannin]", "values": [
      {"measurement": "effect on CRF-induced Src Tyr416 phosphorylation", "setting": "[1]", "value": "did not alter CRF-induced phosphorylation of Src at Tyr^416"},
      {"measurement": "effect on EGF-stimulated ERK1/2 phosphorylation", "setting": "[2]", "value": "unable to inhibit the effect of EGF"}
    ]}
  ]
}
